In EP3283483B1, “CRYSTALLINE ELIGLUSTAT HYDROCHLORIDE” (Sandoz AG, priority 2015, dated 2016):
Where a name gives a salt, the structure may show the parent alone.

Legend:
[1] = Storage stability of the crystalline form, XRPD analysis after storage; assay type: physicochemical; conditions: stored for one week at 40°C / 75% relative humidity
Protocol: XRPD analyses were performed on crystalline eliglustat hydrochloride from example 1 using a Panalytical Xpert Pro diffractometer equipped with a Cu X-ray tube and a Pixcel detector system. The isothermal samples were analysed in transmission mode and held between low density polyethylene films. The following XRPD program was used: range 3-40°2θ, step size 0.013°, counting time 99sec, ∼22min run time.
Crystalline eliglustat hydrochloride from example 1 was stored for one week at 40°C / 75% relative humidity.

[2] = Aqueous solubility determined gravimetrically by slurrying in water; assay type: physicochemical
Protocol: Aqueous solubility was determined gravimetrically by slurrying Eliglustat hydrochloride from example 1 in water at 22°C. The pH of Eliglustat HCl in water was 7.6. A filtered aliquot was transferred to a pre-weighed vial and the solution evaporated.

With CCCCCCCC(=O)N[C@H](CN1CCCC1)[C@H](O)c1ccc2c(c1)OCCO2 [Eliglustat hydrochloride, (1R,2R)-octanoic acid[2-(2',3'-dihydro-benzo[1,4]dioxin-6'-yl)-2-hydroxy-1-pyrrolidin-1-ylmethyl-ethyl]-amide] the “stability of crystalline form after storage (XRPD)” value [1] was “remained stable with regard to its crystalline form”, the solubility ([2]; pH 7.6, thermodynamic from solid, water, 22°C, gravimetric, pH in water 7.6) was 33 mg/mL and the “pH of Eliglustat HCl in water” value ([2]; slurry in water at 22°C) was 7.6.
